Measured values as given in ChEMBL document CHEMBL2073968, “Multidrug resistance protein 4 (MRP4/ABCC4) mediates efflux of bimane-glutathione” (Int J Biochem Cell Biol, 2004).

Experiments:
[1] = molecular target: T1, ATP-binding cassette sub-family C member 4 (Homo sapiens, UniProt O15439); assay: TP_TRANSPORTER: inhibition of bimane-GS efflux in the presence of 1-chloro-2,4-dinitrobenzen(2,4-dinitrophenyl-glutathione) at a concentration of 100uM in MRP4-expressing HepG2 cells; assay type: functional, cell-based; parameters: scale not given: the % may be the effect or the level left; settings: hepg2, 100 µM
T1 sequence (O15439 whole entry): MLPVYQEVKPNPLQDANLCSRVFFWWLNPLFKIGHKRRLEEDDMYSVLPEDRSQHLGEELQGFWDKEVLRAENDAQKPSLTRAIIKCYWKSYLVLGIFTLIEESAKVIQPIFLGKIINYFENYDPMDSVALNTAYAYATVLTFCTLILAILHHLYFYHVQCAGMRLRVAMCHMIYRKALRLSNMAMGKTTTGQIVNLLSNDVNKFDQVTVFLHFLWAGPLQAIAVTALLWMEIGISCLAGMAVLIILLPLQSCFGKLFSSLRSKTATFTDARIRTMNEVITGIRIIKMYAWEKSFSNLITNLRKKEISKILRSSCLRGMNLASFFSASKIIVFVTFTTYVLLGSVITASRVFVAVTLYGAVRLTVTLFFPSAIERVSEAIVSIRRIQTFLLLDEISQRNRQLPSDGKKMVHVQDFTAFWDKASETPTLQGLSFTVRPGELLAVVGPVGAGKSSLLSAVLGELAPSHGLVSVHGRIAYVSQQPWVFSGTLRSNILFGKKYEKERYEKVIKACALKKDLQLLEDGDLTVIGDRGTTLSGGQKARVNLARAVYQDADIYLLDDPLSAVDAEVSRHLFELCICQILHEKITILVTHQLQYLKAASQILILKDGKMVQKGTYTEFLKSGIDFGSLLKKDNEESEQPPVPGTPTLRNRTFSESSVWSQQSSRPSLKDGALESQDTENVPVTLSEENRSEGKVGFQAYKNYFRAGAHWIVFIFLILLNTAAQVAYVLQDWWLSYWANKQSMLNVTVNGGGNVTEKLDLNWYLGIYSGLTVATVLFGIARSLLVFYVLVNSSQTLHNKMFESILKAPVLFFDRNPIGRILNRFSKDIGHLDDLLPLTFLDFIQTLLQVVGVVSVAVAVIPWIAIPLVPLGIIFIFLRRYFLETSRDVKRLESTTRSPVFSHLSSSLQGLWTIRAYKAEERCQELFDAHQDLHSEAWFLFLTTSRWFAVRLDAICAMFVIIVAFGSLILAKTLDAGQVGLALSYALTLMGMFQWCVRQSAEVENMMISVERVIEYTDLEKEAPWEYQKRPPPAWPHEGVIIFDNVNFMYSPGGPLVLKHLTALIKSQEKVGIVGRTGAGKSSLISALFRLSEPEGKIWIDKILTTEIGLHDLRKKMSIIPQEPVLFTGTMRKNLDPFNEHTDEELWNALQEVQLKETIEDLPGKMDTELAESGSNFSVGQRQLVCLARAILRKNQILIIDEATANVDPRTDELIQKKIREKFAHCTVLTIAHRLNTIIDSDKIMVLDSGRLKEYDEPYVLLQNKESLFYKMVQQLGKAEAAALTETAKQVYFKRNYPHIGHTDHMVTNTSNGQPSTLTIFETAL

[2] = molecular target: T1, ATP-binding cassette sub-family C member 4; assay: TP_TRANSPORTER: inhibition of bimane-GS efflux in the presence of Benzbromarone at a concentration of 5uM in MRP4-expressing HepG2 cells; assay type: functional, cell-based; parameters: scale not given: the % may be the effect or the level left; settings: hepg2, 5 µM
[3] = molecular target: T1, ATP-binding cassette sub-family C member 4; assay: TP_TRANSPORTER: efflux in MRP4-expressing HepG2 cells; assay type: functional, cell-based
[4] = molecular target: T1, ATP-binding cassette sub-family C member 4; assay: TP_TRANSPORTER: inhibition of bimane-GS efflux in the presence of Indomethacin at a concentration of 50uM in MRP4-expressing HepG2 cells; assay type: functional, cell-based; parameters: scale not given: the % may be the effect or the level left; settings: hepg2, 50 µM
[5] = molecular target: T2, MRP4 (ATP-binding cassette sub-family C member 4) (Homo sapiens, UniProt O15439); assay: TP_TRANSPORTER: inhibition of bimane-GS efflux in the presence of Methotrexate at a concentration of 100uM in MRP4-expressing HepG2 cells; assay type: functional, cell-based; parameters: scale not given: the % may be the effect or the level left; settings: probe bimane-GS, read-out: Activity
T2 sequence (O15439 whole entry): T1 sequence (O15439 whole entry)

[6] = molecular target: T1, ATP-binding cassette sub-family C member 4; assay: TP_TRANSPORTER: inhibition of E217betaG uptake in membrane vesicles from MRP4-expressing Sf9 cells; assay type: functional, cell membranes, Membrane vesicle
[7] = molecular target: T2, MRP4 (ATP-binding cassette sub-family C member 4); assay: TP_TRANSPORTER: inhibition of bimane-GS efflux in the presence of 6-thioguanine at a concentration of 100uM in MRP4-expressing HepG2 cells; assay type: functional, cell-based; parameters: scale not given: the % may be the effect or the level left; settings: probe bimane-GS, read-out: Activity

For NC(CCC(=O)NC(CSc1ccc([N+](=O)[O-])cc1[N+](=O)[O-])C(=O)NCC(=O)O)C(=O)O.O=[N+]([O-])c1ccc(Cl)c([N+](=O)[O-])c1 (configuration not stated), the Activity [1] was 27%.
CCc1oc2ccccc2c1C(=O)c1cc(Br)c(O)c(Br)c1 [BENZBROMARONE] showed an Activity [2] of 60%.
In the case of Cc1c(C)n2c(CSC[C@H](NC(=O)CC[C@H](N)C(=O)O)C(=O)CNC(=O)O)c(C)c(=O)n2c1=O [Bimane-glutathione], the Activity [3] is reported as “substrate []”.
With COc1ccc2c(c1)c(CC(=O)O)c(C)n2C(=O)c1ccc(Cl)cc1 [INDOMETHACIN] the Activity [4] was 74%.
In the case of CN(Cc1cnc2nc(N)nc(N)c2n1)c1ccc(C(=O)N[C@@H](CCC(=O)O)C(=O)O)cc1 [METHOTREXATE], the activity at 100 µM [5] is reported as 53%.
Compound C[C@]12CC[C@H](OS(=O)(=O)O)CC1=CC[C@@H]1[C@@H]2CC[C@]2(C)C(=O)CC[C@@H]12 [PRASTERONE SULFURIC ACID] has an IC50 [6] of 3 µM.
For Nc1nc2nc[nH]c2c(=S)[nH]1 [THIOGUANINE], the activity at 100 µM [7] was 53%.
